According to article PMC11189555, “Aryl amino acetamides prevent Plasmodium falciparum ring development via targeting the lipid-transfer protein PfSTART1” (Nature Communications, 2024):
“And” between values parts separate entries of the source, which are not always exact repeats. Equal values may be shown once.

Legend:
ring-stage parasites = assay: Parasite reduction ratio assay; assay type: cell-based, Plasmodium falciparum
Procedure: Parasite reduction ratio assay. This was performed as previously described 9,10.
Briefly, asynchronous ring -stage parasites at 0.5% parasitemia and 2% haematocrit were exposed to compounds at 10 x EC50 of growth for five days with daily drug renewal. After each 24 h, a well from each treatment group was taken and washed three times in complete RPMI and final volume adjusted to 2% haematocrit. The washed culture was then aliquoted into a 96 well U-bottom plate and a 1:3 serial dilution into fresh uninfected RBCs was performed with four technical replicates for each time point. Plates were maintained in normal culturing conditions: media was replaced, and fresh RBCs given 1-2 times a week for three weeks, after which parasite growth was measured via lactate dehydrogenase assays. The number of viable parasites was calculated using the formula xn-1 +1, where x is the dilution factor and n is the number of wells that contain parasite growth. The viable parasite value was then expressed in log units and parasite reduction ratio was calculated as a decrease in […]

[1] = system: processed PfSTART1 (proc1, proc2) in schizonts; assay: Processing of PfSTART1 along schizogony with egress inhibitors (Western blot densitometry); assay type: cell-based, Plasmodium falciparum; conditions: for Normalised by EXP2: START full length / Normalised by EXP2: START processed 1 / Normalised by EXP2: START processed 2 / Normalised by EXP2 and full length: START processed 1 / Normalised by EXP2 and full length: START processed 2 / Raw densitometry: START full length / Raw densitometry: START processed 1 / Raw densitometry: START processed 2: biological replicates 1-5
Procedure: Magnet-purified schizonts were harvested after a 4 h treatment with the following: DMSO (0.1%), 49c (10 nM), C1 (1.5 μM) or E64 (10 μM). Parasites were washed in ice-cold PBS + PI (centrifugation steps carried out at 4 °C at 3,000 g). Samples were resuspended in NRSB, sonicated, boiled 10 min at 80 °C and separated by electrophoresis as explained previously. The parasites used in this experiment were 3D7 transfected with p1.2-ABH(WT)-83-HA-glmS, i.e. parasites containing a recodonised version of PF3D7_0403800 within its genome. […]
(DMSO). Schizonts were saponin -lysed. (E) Synchronised 3D7 schizonts were magnet-purified, stalled at different stages of egress: 4 h with 10 nM 49c (plasmepsin X inhibitor), 1.5 µM compound 1 (C1; PKG inhibitor), 10 µM E64, or allowed to progress (DMSO). Whole cells were harvested. PEXEL-cleaved, and the two further processed forms of PfSTART1 are indicated by solid and empty arrows respectively.
(F) Densitometry of processed PfSTART1 (proc1 and proc2) was normalised to the corresponding PEXEL-cleaved PfSTART1. n=10 replicates (n=6 for the 49c treatment). Two-way ANOVA with Šídák's multiple comparisons test (compare each

[2] = system: P. berghei sporozoites invading HC-04 human liver cells; assay: In vitro liver invasion assay; assay type: cell-based, Plasmodium berghei; conditions: Replicate 1 and 2
Procedure: P. berghei ANKA constitutively expressing mCherry[82] was used for the in vitro liver stage invasion assay. Animals used for the generation of the sporozoites were 4- to 5-week-old male Swiss Webster mice and were purchased from the Monash Animal Services (Melbourne, Victoria, Australia) and housed at 22 to 25 °C on a 12 h light/dark cycle with 40-70% humidity at the School of Biosciences, The University of Melbourne, Australia. All animal experiments were in accordance with the Prevention of Cruelty to Animals Act 1986, the Prevention of Cruelty to Animals Regulations 2008, and National Health and Medical Research Council (2013) Australian code for the care and use of animals for scientific purposes. These experiments were reviewed and permitted by the Melbourne University Animal Ethics Committee (2015123).
Infections of naïve Swiss mice were carried out by intraperitoneal (IP) inoculation obtained from a donor mouse between the first and fourth passages from cryopreserved stock. Parasitemia was monitored by Giemsa smear and exflagellation quantified 3 days post-infection. A. stephensi mosquitoes were allowed to feed on anaesthetised mice once the exflagellation rate was assessed between about 12 to 15 exflagellation events per 1 × 10^4 RBCs. Salivary glands of infected mosquitoes (days 17 to 24 post-infection) were isolated by dissection and parasites placed into RPMI-1640 media.
This was performed essentially as described[83] with the minor variations outlined in the Supplementary Information. […]
In vitro liver invasion assays. This was performed essentially as described16 with the following variations. In vitro human liver HCO4 cells (ATCC) were seeded at 1 × 10^5 cells/mL, grown for 24 h and then infected for 2 h with 30,000 Pb ANKA mCherry […]
expressing sporozoites. Following fixation, an IFA with anti -CSP antibody (1:500) followed by anti-mouse Alexafluor 488 (1:1 ,000; Invitrogen, Carlsbad, CA, USA) labels uninvaded parasites. Fluorescence signal was assessed using an Olympus CKX41 epifluorescence microscope. […]
Gametogenesis was then triggered by the addition of 10 μL ookinete medium (gametocyte culture medium supplemented with 100 μM xanthurenic acid and 0.27 µg/mL Cy3-labelled anti-Pfs25 antibody) to each well at room temperature. Plates were then cooled on a metal block at 4°C for four min to ensure even cooling and then stabilised for a further 4 min at 28°C. At 20 min post-induction, male gametogenesis was recorded in each well by automated brightfield microscopy using a x4 objective lens and 1.5x magnifier (x6 effective magnification). Afterward, plates were incubated in the dark at room temperature for 24 h and then female gametogenesis recorded in each well by automated fluorescence microscopy (anti-Pfs25-positive cells). All experiments were performed in quadruplicate with DMSO and cabamiquine (DDD107498)17 as negative and positive controls respectively. All data was evaluated in comparison to the positive and negative controls to calculate percentage inhibition of male and female gametocytes, and dose response analysis and IC50 calculation performed using GraphPad Prism. […]
The pellet was subjected to five

[3] = schizonts treated 4 h: 49c 10 nM, C1 1.5 μM, E64 10 μM, vs DMSO and other treatments

## CCN(CC)CCCC(C)Nc1ccnc2cc(Cl)ccc12 (stereo not drawn) [CQ, chloroquine, reference compound]
ring-stage parasites; 10xEC50: 75 nM CQ, 60 nM W-991
  killing profile: fast-acting
ring-stage parasites; Replicate 1, PRR calculations
  PRR: 4.528
ring-stage parasites; Replicate 1, T=1
  log(parasite viability) +1: 2.863
ring-stage parasites; Replicate 1, T=1, 1:3 dilution
  Parasite viability: 729
ring-stage parasites; Replicate 1, T=2
  log(parasite viability) +1: 0.6021
ring-stage parasites; Replicate 1, T=2, 1:3 dilution
  Parasite viability: 3
ring-stage parasites; Replicate 1, T=3
  log(parasite viability) +1: 0
ring-stage parasites; Replicate 1, T=3, 1:3 dilution
  Parasite viability: 0
ring-stage parasites; Replicate 1, T=4
  log(parasite viability) +1: 0
ring-stage parasites; Replicate 1, T=4, 1:3 dilution
  Parasite viability: 0
ring-stage parasites; Replicate 1, T=5
  log(parasite viability) +1: 0
ring-stage parasites; Replicate 1, T=5, 1:3 dilution
  Parasite viability: 0
ring-stage parasites; Replicate 2, Hours 0
  log(parasite viability) +1 used in PRR calculations: 5.248
ring-stage parasites; Replicate 2, PRR calculations
  PRR: 2.861
ring-stage parasites; Replicate 2, T=1
  Parasite viability +1: 19684
  log(parasite viability) +1: 4.294
ring-stage parasites; Replicate 2, T=1, 1:3 dilution
  Parasite viability: 19683
ring-stage parasites; Replicate 2, T=2
  Parasite viability +1: 10
  log(parasite viability) +1: 1
ring-stage parasites; Replicate 2, T=2, 1:3 dilution
  Parasite viability: 9
ring-stage parasites; Replicate 2, T=3
  Parasite viability +1: 244
  log(parasite viability) +1: 2.387
ring-stage parasites; Replicate 2, T=3, 1:3 dilution
  Parasite viability: 243
ring-stage parasites; Replicate 2, T=4
  Parasite viability +1: 82
  log(parasite viability) +1: 1.914
ring-stage parasites; Replicate 2, T=4, 1:3 dilution
  Parasite viability: 81
ring-stage parasites; Replicate 2, T=5
  Parasite viability +1: 1
  log(parasite viability) +1: 0
ring-stage parasites; Replicate 2, T=5, 1:3 dilution
  Parasite viability: 0
ring-stage parasites; replicate 3, 0 hours, start value (UT T=0) used in PRR calculations
  log(parasite viability) +1: 5.248
ring-stage parasites; replicate 3, T=1
  Parasite viability (1:3 dilution): 6561
  log(parasite viability) +1: 3.817
ring-stage parasites; replicate 3, T=2
  Parasite viability (1:3 dilution): 9
ring-stage parasites; replicate 3, T=2 (48 hours in PRR calculations)
  log(parasite viability) +1: 1
ring-stage parasites; replicate 3, T=3
  Parasite viability (1:3 dilution): 0
ring-stage parasites; replicate 3, T=3 (72 hours in PRR calculations)
  log(parasite viability) +1: 0
ring-stage parasites; replicate 3, T=4
  Parasite viability (1:3 dilution): 0
  log(parasite viability) +1: 0
ring-stage parasites; replicate 3, T=5
  Parasite viability (1:3 dilution): 0
ring-stage parasites; replicate 3, T=5 (120 hours in PRR calculations)
  log(parasite viability) +1: 0
ring-stage parasites; replicate 3, difference of log viability over 48 h (CQ 0-48 hours, W991 72-120 hours)
  PRR: 4.248

## CC(C)C[C@H](NC(=O)[C@H]1O[C@@H]1C(=O)O)C(=O)NCCCCN=C(N)N [E64]
[1]; BLOT AMA1, '+' lane
  Normalised by EXP2: START full length: 9.91E+01 and 2.44E+01 and 1.44E+02 and 6.49E+01 and 9.10E+02
  Normalised by EXP2: START processed 1: 5.50E+01 and 7.11E+00 and 4.58E+01 and 1.53E+01 and 3.44E+02
  Normalised by EXP2: START processed 2: 9.13E+01 and 1.13E+01 and 7.80E+01 and 1.03E+01 and 3.88E+02
  Normalised by EXP2 and full length: START processed 1: 5.54E+01 and 2.91E+01 and 3.18E+01 and 2.36E+01 and 3.78E+01
  Normalised by EXP2 and full length: START processed 2: 9.21E+01 and 4.63E+01 and 5.42E+01 and 1.59E+01 and 4.26E+01
  Raw densitometry: START full length: 9.54 and 2.49E+01 and 26.4 and 2.01E+01 and 2.02E+01
  Raw densitometry: START processed 1: 2.78 and 7.92E+00 and 6.24 and 7.59E+00 and 1.12E+01
  Raw densitometry: START processed 2: 4.42 and 1.35E+01 and 4.19 and 8.56E+00 and 1.86E+01
[1]; BLOT AMA1, '-' lane
  Normalised by EXP2: START full length: 1.05E+02 and 2.53E+01 and 1.75E+02 and 7.60E+01 and 6.88E+02
  Normalised by EXP2: START processed 1: 6.93E+01 and 7.41E+00 and 5.19E+01 and 1.82E+01 and 2.72E+02
  Normalised by EXP2: START processed 2: 9.19E+01 and 9.39E+00 and 9.29E+01 and 7.65E+00 and 2.73E+02
  Normalised by EXP2 and full length: START processed 1: 6.61E+01 and 2.93E+01 and 2.98E+01 and 2.39E+01 and 3.96E+01
  Normalised by EXP2 and full length: START processed 2: 8.76E+01 and 3.72E+01 and 5.32E+01 and 1.01E+01 and 3.96E+01
  Raw densitometry: START full length: 8.29 and 2.80E+01 and 29.3 and 1.80E+01 and 2.42E+01
  Raw densitometry: START processed 1: 2.43 and 8.33E+00 and 7.01 and 7.12E+00 and 1.60E+01
  Raw densitometry: START processed 2: 3.08 and 1.49E+01 and 2.95 and 7.13E+00 and 2.12E+01
[1]; BLOT Rh5, '+' lane
  Normalised by EXP2: START full length: 7.41E+01 and 1.24E+02 and 2.65E+01 and 1.82E+02 and 1.65E+02
  Normalised by EXP2: START processed 1: 5.05E+01 and 4.02E+01 and 7.30E+00 and 3.75E+01 and 7.40E+01
  Normalised by EXP2: START processed 2: 7.26E+01 and 3.45E+01 and 1.15E+01 and 3.53E+01 and 8.50E+01
  Normalised by EXP2 and full length: START processed 1: 6.81E+01 and 3.26E+01 and 2.75E+01 and 2.05E+01 and 4.47E+01
  Normalised by EXP2 and full length: START processed 2: 9.79E+01 and 2.79E+01 and 4.33E+01 and 1.93E+01 and 5.14E+01
  Raw densitometry: START full length: 12.9 and 1.34E+01 and 3.87E+01 and 2.57E+01 and 1.42E+01
  Raw densitometry: START processed 1: 4.2 and 3.69E+00 and 7.95E+00 and 1.15E+01 and 9.67E+00
  Raw densitometry: START processed 2: 3.6 and 5.80E+00 and 7.48E+00 and 1.32E+01 and 1.39E+01
[1]; BLOT Rh5, '-' lane
  Normalised by EXP2: START full length: 8.04E+01 and 1.20E+02 and 3.28E+01 and 2.15E+02 and 2.08E+02
  Normalised by EXP2: START processed 1: 5.15E+01 and 3.77E+01 and 7.46E+00 and 4.92E+01 and 7.28E+01
  Normalised by EXP2: START processed 2: 6.74E+01 and 3.23E+01 and 1.26E+01 and 2.81E+01 and 6.72E+01
  Normalised by EXP2 and full length: START processed 1: 6.41E+01 and 3.14E+01 and 2.27E+01 and 2.28E+01 and 3.49E+01
  Normalised by EXP2 and full length: START processed 2: 8.38E+01 and 2.69E+01 and 3.85E+01 and 1.30E+01 and 3.22E+01
  Raw densitometry: START full length: 9.62 and 1.50E+01 and 4.00E+01 and 3.32E+01 and 1.67E+01
  Raw densitometry: START processed 1: 3.02 and 3.41E+00 and 9.14E+00 and 1.16E+01 and 1.07E+01
  Raw densitometry: START processed 2: 2.59 and 5.78E+00 and 5.21E+00 and 1.07E+01 and 1.40E+01
[1]; [3]
  level of PfSTART1proc1 normalised to PEXEL-cleaved PfSTART1: contained most of both processed bands
  level of PfSTART1proc2 normalised to PEXEL-cleaved PfSTART1: significant enrichment in PfSTART1proc2

## C=C1[C@@H](C)[C@H]2[C@H](Cc3ccccc3)NC(=O)[C@]23[C@H](OC(C)=O)/C=C/[C@@](C)(O)C(=O)[C@@H](C)C/C=C/[C@H]3[C@@H]1O [cytD, cytochalasin D, reference compound]
[2]; count of sporozoites inside cells
  Liver stage invasion assay: in: 2
[2]; count of sporozoites outside cells
  Liver stage invasion assay: out: 118 and 305
[2]; in relative to in + out
  Liver stage invasion assay: ratio: 1.667 and 0.6515
